This passage reports Activity, inhibition and IC50 results from ChEMBL document CHEMBL4842361, “Design, synthesis and biological activities of benzo[d]imidazo[1,2-a]imidazole derivatives as TRPM2-specfic inhibitors” (Eur J Med Chem, 2021).

Each structure is given as a SMILES string. The source made the active and inactive calls. The rule behind the calls is not given here.

In data set [1] the test system is SH-SY5Y. Kind of data set: Neuroprotection against H202-induced cell death in TRPM2 knockdown human SH-SY5Y cells assessed as increase in cell viability at 100 uM after 24 hrs by CCK8 assay. The format is functional, cell-based. For orientation: Tetrazolium dyes change colour on reduction, which living cells bring about.
For data set [2], the target named is T1, Transient receptor potential cation channel subfamily M member 2 (Homo sapiens, UniProt O94759). Kind of data set: Inhibition of human TRPM2 expressed in HEK293T cells cotransfected with GFP assessed as reduction in ADPR-induced current at 30 uM by whole cell patch-clamp method relative to control. The class given is cell-based. (In general: In patch-clamp work, channel activity is measured electrically.)

The subject of data set [3] is SH-SY5Y. Kind of data set: Neuroprotection against H202-induced cell death in human SH-SY5Y cells assessed as increase in cell viability at 100 uM after 24 hrs by CCK8 assay. The format is functional, cell-based.
The target of data set [4] is Transient receptor potential cation channel subfamily V member 1 (Homo sapiens) (UniProt Q8NER1). Kind of data set: Inhibition of TRPV1 (unknown origin) assessed as inhibition of capsaicin-induced current at 30 uM by whole cell patch-clamp method relative to control.
In data set [5] the test system is SH-SY5Y. Briefly: Cytotoxicity against human SH-SY5Y cells at 30 uM measured after 24 hrs by CCK-8 assay. The class given is cell-based.
The target in data set [6] is Transient receptor potential cation channel subfamily M member 8 (Rattus norvegicus) (UniProt Q8R455). Kind of data set: Inhibition of rat TRPM8 expressed in HEK293T cells cotransfected with GFP assessed as inhibition of […]-induced current at 30 uM by whole cell patch-clamp method relative to control. The format is cell-based.
The target in data set [7] is T1, Transient receptor potential cation channel subfamily M member 2. Kind of data set: Inhibition of human TRPM2 expressed in HEK293T cells cotransfected with GFP assessed as reduction in ADPR-induced current by whole cell patch-clamp method. The class given is cell-based.
For data set [8] the target is unchanged. Kind of data set: Inhibition of human TRPM2 expressed in HEK293T cells cotransfected with GFP assessed as reduction in ADPR-induced current at 10 uM by whole cell patch-clamp method relative to control. The format is cell-based.

T1 sequence (O94759 whole entry): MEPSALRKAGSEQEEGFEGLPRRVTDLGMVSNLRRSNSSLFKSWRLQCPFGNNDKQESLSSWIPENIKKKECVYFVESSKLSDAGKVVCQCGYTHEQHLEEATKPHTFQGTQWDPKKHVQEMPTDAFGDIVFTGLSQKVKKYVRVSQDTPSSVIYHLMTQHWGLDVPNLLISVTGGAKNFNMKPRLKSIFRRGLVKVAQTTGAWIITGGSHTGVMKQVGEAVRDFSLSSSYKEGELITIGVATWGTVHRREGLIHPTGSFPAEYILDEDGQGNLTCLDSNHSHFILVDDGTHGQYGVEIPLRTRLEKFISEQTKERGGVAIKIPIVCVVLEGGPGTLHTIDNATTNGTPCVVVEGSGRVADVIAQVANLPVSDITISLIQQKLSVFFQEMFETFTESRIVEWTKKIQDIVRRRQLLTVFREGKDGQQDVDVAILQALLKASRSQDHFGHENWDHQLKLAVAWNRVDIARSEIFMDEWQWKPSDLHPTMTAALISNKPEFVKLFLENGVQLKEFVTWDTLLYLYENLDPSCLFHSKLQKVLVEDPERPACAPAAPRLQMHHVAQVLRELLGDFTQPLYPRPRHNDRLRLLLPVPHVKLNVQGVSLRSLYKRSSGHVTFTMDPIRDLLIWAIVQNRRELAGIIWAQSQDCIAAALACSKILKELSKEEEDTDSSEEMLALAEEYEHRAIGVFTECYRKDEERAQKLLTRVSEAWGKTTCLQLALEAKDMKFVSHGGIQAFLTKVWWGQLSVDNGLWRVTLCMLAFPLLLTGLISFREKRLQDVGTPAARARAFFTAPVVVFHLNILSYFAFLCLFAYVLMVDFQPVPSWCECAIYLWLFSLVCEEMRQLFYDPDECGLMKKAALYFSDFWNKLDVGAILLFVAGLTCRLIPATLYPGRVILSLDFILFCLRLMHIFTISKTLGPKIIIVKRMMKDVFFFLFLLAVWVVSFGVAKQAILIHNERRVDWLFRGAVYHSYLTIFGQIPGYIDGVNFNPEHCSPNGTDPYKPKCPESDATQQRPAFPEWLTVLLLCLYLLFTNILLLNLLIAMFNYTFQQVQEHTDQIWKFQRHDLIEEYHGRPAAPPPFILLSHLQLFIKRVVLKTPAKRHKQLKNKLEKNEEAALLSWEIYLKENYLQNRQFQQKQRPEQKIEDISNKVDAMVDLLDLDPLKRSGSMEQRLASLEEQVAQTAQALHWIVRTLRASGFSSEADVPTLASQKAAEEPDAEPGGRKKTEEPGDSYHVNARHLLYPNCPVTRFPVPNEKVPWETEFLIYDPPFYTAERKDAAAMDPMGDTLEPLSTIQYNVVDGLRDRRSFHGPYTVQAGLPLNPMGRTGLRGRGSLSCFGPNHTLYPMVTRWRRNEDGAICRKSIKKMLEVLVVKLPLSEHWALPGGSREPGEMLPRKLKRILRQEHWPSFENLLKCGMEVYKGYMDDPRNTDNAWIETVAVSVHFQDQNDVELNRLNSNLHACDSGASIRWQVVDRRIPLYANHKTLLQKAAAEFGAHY
Transient receptor potential cation channel subfamily M member 8 (Rattus norvegicus), sequence (Q8R455 whole entry, looked up): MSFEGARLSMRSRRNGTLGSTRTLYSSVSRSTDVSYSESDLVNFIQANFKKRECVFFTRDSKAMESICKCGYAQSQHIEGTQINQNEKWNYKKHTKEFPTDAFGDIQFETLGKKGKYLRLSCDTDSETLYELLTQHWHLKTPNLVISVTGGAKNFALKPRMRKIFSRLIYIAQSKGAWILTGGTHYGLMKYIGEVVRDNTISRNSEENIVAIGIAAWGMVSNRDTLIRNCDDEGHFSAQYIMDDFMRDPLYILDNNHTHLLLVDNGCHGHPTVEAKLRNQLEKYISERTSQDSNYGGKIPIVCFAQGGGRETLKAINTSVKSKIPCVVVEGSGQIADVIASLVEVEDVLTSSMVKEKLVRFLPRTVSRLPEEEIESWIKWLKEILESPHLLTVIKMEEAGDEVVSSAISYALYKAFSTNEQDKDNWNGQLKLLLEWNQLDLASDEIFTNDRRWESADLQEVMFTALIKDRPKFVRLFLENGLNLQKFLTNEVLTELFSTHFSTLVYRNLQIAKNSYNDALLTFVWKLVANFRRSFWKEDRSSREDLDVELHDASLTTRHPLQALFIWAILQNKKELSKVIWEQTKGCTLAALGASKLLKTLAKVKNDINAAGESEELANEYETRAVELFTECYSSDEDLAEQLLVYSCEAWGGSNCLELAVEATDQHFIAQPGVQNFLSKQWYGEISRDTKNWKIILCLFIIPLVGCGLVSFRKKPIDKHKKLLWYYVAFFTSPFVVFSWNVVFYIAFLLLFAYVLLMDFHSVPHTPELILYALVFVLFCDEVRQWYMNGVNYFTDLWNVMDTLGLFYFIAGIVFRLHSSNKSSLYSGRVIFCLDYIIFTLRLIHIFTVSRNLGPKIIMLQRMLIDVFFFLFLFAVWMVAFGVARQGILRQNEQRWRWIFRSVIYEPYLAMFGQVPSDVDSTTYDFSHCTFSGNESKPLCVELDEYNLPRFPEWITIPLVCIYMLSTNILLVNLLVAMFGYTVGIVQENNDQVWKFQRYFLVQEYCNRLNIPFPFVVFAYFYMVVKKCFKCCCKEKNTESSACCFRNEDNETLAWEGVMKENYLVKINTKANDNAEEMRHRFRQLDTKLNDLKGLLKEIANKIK
Transient receptor potential cation channel subfamily V member 1 (Homo sapiens), sequence (Q8NER1 whole entry): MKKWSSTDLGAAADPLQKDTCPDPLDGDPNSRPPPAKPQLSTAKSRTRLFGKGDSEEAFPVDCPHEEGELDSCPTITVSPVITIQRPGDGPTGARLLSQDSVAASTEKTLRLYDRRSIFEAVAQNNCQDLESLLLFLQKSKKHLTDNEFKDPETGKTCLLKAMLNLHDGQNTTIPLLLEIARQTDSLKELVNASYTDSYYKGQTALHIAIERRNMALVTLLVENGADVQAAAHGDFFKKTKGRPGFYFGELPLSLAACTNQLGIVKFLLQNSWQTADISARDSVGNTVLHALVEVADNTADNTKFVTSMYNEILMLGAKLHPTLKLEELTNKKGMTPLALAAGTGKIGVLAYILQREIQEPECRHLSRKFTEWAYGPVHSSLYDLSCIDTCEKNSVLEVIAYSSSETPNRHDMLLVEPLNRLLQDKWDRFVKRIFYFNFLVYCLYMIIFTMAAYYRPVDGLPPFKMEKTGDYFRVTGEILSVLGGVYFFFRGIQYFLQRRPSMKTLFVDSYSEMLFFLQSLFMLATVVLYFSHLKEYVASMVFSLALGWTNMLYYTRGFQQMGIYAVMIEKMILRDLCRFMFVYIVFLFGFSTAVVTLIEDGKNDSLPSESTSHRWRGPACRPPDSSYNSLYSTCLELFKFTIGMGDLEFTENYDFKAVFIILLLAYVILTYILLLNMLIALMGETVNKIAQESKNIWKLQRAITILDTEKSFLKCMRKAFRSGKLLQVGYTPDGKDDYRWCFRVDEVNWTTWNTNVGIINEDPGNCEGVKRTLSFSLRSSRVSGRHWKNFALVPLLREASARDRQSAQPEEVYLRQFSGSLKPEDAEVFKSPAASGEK

With `CCN(CC)CCn1c2ccccc2n2c(C(=O)c3cc4ccccc4o3)c(C)nc12`, the result in the data set with SH-SY5Y [1] was inactive. Moreover, the inhibition (in general, the drop in the measured response relative to a control, in per cent) in data set [2] is 90%; in data set [4], 22%; in data set [6], 36%. Further, the outcome with SH-SY5Y [3] was Active. Further, the Activity result with SH-SY5Y [5] was “Non-Toxic”. Moreover, in data set [7], the IC50 (commonly the concentration at which inhibition is half-maximal) came out at 8.1 µM.

In the case of `CCN(CC)CCn1c2ccccc2n2c(C(C)=O)c(C)nc12`, the inhibition in data set [8] was 50%.

As for `CCN(CC)CCn1c2ccccc2n2c(C(=O)c3ccc(-c4ccccc4)cc3)c(C)nc12`, in the data set with SH-SY5Y [1], the outcome was inactive. Further, the inhibition in data set [2] was determined as 90%; in data set [4], 40%; in data set [6], 26%. In the data set with SH-SY5Y [3], the outcome was Active. Moreover, in the data set with SH-SY5Y [5], the Activity result is “Non-Toxic”. In data set [7], the IC50 came out at 6.2 µM.
